Molecules are shown by their SMILES.

This passage reports Acid inhibition rate, IC50 and Hepatic drug concentration results from patent publication US20260001864A1, “COMPOUND CONTAINING SULFAMIDE STRUCTURE, AND PREPARATION METHOD THEREFOR AND APPLICATION THEREOF, AND PHARMACEUTICAL COMPOSITION AND APPLICATION” (Nanjing Shuohui Pharmatechnology Co., Ltd, priority 2021, published 2026).

The subject of data set [1] is histamine-induced gastric acid secretion. As to the kind of experiment: Inhibition of histamine-induced gastric acid secretion in rats (pylorus ligation). Format: in vivo, rat. The conditions noted are these: SD rats, total acid over 3 h after histamine. Here is the method: 70 SPF-level SD rats with a weight of 180-220 g (Hangzhou Medical College (produced)), randomly grouped by weight, including negative control groups (isovolumetric saline) and model control groups (isovolumetric saline), and compounds obtained in the foregoing preparation examples of the present invention (i.e., compounds or compound hydrochlorides) (2 mg/kg or 4 mg/kg), 10 rats each group, including 5 males and 5 females. The rats were fasted, but were allowed to drink water for 24 h. After 24 h, the rats were given the compound at 1 ml/100 g by gavage, once in each group, and the rats in the negative control groups and the model groups were given an equal volume of saline by gavage. After that, the rats were anesthetized with chloral hydrate 300 mg/kg (1 ml/100 g) and fixed on a rat plate, and the abdominal wall was incised along the abdominal midline from the subxiphoid process of the sternum, and the incision was approximately 2-3 cm and was made on the left costal margin, and the stomach was exposed to the incision by gently pushing it with the fingers upwards. The pylorus was ligated with a thread under the pylorus (other neighboring vessels were not ligated), and the abdominal wall incision was sutured. The animals were given histamine dihydrochloride (30 mg/10 ml/kg) subcutaneously after 1 h of gavage of the test compound or saline. After 3 h of histamine administration, the rats were asphyxiated with excess CO2, stomachs were removed, stomach contents were collected and centrifuged at 3000 rpm/min for 10 min, and the acid solution was titrated with 0.1 mol/L NaOH to pH7.0. The total acidity and acid inhibition rate during the 3 h period were calculated.
Acid inhibition rate (%)=(Total acid in the model group−total acid in the test group)/total acid in the model group×100%

The target in data set [2] is H+/K+-ATPase (rabbit gastric mucosal microsomes) (Oryctolagus cuniculus (Rabbit), UniProt P27112). Briefly: In vitro screening test of H+/K+-ATPase inhibition (malachite green). Type of data set: biochemical. Conditions: pH 6.5, 37° C. 30 min, read-out: IC50, inhibitory effect on H+/K+-ATPase activity. The text has this: This test example evaluates the inhibitory effects of the compounds of the present invention on the activity of H+/K+-ATPase by an in vitro screening test, and expresses them with the IC50 values of the compounds (obtained by calculating the inhibition rates at different concentrations).
Chain of H+/K+-ATPase (rabbit gastric mucosal microsomes) (P27112 whole entry): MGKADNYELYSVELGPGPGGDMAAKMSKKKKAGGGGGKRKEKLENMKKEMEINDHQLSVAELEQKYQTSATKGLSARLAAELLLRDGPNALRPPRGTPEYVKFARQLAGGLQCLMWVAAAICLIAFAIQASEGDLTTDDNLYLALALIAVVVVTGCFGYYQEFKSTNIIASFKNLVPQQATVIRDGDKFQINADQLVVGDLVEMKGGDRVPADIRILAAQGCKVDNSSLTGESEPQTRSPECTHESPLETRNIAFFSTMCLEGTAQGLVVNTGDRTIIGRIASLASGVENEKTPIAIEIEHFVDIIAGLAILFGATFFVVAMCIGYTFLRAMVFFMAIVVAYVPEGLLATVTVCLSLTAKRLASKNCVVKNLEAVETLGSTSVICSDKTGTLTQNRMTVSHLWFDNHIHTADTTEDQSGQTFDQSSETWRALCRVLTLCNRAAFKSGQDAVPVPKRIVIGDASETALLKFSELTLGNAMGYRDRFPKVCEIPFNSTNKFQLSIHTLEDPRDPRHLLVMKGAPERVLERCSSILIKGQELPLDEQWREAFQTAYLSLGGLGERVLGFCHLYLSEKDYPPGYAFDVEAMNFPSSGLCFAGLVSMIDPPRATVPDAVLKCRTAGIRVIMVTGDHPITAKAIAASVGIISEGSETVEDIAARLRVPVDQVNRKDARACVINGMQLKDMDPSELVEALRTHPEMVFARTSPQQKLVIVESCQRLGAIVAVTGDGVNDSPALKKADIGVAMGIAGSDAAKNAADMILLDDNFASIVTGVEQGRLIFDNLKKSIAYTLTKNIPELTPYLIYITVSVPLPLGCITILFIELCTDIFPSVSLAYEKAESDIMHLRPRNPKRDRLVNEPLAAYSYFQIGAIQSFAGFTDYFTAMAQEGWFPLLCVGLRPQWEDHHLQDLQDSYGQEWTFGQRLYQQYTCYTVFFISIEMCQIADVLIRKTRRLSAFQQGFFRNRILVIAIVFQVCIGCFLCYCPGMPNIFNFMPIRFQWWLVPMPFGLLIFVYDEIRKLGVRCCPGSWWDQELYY
Chain of H+/K+-ATPase (rabbit gastric mucosal microsomes) (P18597 whole entry partner): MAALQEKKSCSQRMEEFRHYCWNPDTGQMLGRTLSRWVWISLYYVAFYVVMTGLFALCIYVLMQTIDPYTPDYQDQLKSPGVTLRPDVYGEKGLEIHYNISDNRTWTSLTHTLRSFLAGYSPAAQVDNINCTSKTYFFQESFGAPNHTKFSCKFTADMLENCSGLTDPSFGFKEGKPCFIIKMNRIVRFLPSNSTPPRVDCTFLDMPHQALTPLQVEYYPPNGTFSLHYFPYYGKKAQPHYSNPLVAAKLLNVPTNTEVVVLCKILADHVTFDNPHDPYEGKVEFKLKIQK
• Compound solutions: The products (i.e., the compounds or the hydrochloride salt of compounds) obtained in the foregoing preparation examples of the present invention were each independently dissolved in DMSO to form solutions at suitable concentrations; • Buffer I: 50 mmol/L HEPEs-Tris, pH=6.5, 5 mmol/L magnesium chloride, […] valinomycin (J&K Scientific Ltd., goods No.: 227304); • Buffer II: 50 mmol/L HEPEs-Tris, pH=6.5, 5 mmol/L magnesium chloride, […] valinomycin, 5 mmol/L potassium chloride; • 5-adenosine triphosphate (ATP, Sigma-Aldrich, goods No.: A2383) solution: Dilute ATP with buffer I to 5 mM; • Malachite green solution: Dissolve 0.12 wt % malachite green (J&K Scientific Ltd., goods No.: 913120) in 2.5 mol/L sulfuric acid, 7.5 wt % ammonium molybdate (J&K Scientific Ltd., goods No.: 128321) and 11% Tween 20(V/V). During use, sulfuric acid, ammonium molybdate and Tween 20 are mixed in a ratio of 100:25:2; • Rabbit gastric mucosal microsomes (rich in H+/K+-ATPase, self-extracted), extracted by sucrose gradient centrifugation: The rabbit stomach was washed with tap water and 3M NaCl solution, respectively, and then the surface water was removed with filter paper. A pre-cooled homogenization buffer (4 ml/g tissue) was added and homogenized for 2-5 min in a tissue homogenizer. After the homogenizing, if there are large tissue particles, they can be removed by centrifugation (600 g, 10 min). The supernatant was then transferred to a clean centrifuge tube and centrifuged at 20,000 g for 30 min, then the supernatant was transferred to a clean centrifuge tube and further centrifuged at 100,000 g for 90 min and the precipitate was collected; the precipitate was suspended in homogenate and blown evenly, and the protein concentration was measured by the Bradford's method and adjusted to 10 mg/ml; 7.5 wt % Ficoll's layering solution was added in equal proportions. After centrifugation at 100,000 g for 60 min, the middle layer (H^+/K^+-ATPase-enriched gastric membranes) was collected in a clean centrifuge tube, diluted with homogenate by 4-5 times, and then centrifuged at 100,000 g for another 90 min, and the precipitate was collected; the precipitate was suspended in homogenate and homogenized in a glass homogenizer, and the protein concentration was measured by the Bradford's method and adjusted to 22.5 mg/ml. It was frozen at −80° C. and stored for future use.
5 μL of rabbit gastric mucosal microsomes (H^+/K^+-ATPase) was added to 45 μL of buffer II, then 5 μL of compound solution was added, and then 5 μL of 5 mM ATP solution was added to start the reaction and pre-react at 37° C. for 30 min. 15 μL of malachite green solution was added to terminate the reaction, balancing was conducted at room temperature for 20 min, and read the optical absorbance at 620 nm.
Meanwhile, the reaction of the same volume was carried out without addition of potassium chloride as a background, which was subtracted when calculating enzymatic activity.

Data set [3] is described as follows: Rat tissue distribution test (oral, LC-MS-MS). Type of data set: in vivo. On the set-up: Hepatic drug concentration: unit not given here. Conditions: liver, oral 4 mg/kg, rat. Here is the method: Three healthy male SD rats (body weight range 220-250 g, Zhejiang Charles River) were taken and assigned into one group (n=3). Compound 48, Compound A9 or comparison compound Vonoprazan were administered orally at a dose of 4 mg/kg.
Solvent for preparing pharmaceutical preparations: Pure water. The rats were fasted 4 h prior to the administration. […] The tissue was homogenized, and the corresponding blank tissue was used for preparation of a calibration curve and QC quantification. Blood samples should be centrifuged to extract plasma within 1 hour of collection and kept on crushed ice prior to the centrifugation. Plasma samples obtained by centrifugation were stored in a freezer until analysis. Centrifugation conditions: 4-10° C., 8000 rpm, 6 min. The concentration of the sample was determined by LC-MS-MS (MS03: Shimadzu LC30AD and API 4000)), and the exposure data were calculated by WINNOLIN software.

For `CNCc1cc(-c2ccc(OCC3CCO3)cc2F)n(S(=O)(=O)c2cccnc2)c1` (stereo not shown) [Compound A15], the Acid inhibition rate in data set [1] (2 mg/kg by gavage) stood at 64%. `CNCc1cc(-c2ccc(OC(C)c3c(F)cccc3F)cc2F)n(S(=O)(=O)c2cccnc2)c1` (stereo not shown) [Compound 67]: the Acid inhibition rate in data set [1] (2 mg/kg by gavage) came to 64%. Also, the IC50 in data set [2] amounted to 41 nM.

Turning to `CNCc1cc(-c2ccccc2F)n(S(=O)(=O)c2cccnc2)c1` [Vonoprazan, reference compound], the Hepatic drug concentration in data set [3] (15 min) was 9919; in data set [3] (1 h), 1192; in data set [3] (2 h), 632; in data set [3] (4 h), 162; in data set [3] (24 h) it was 23.7.

`CNCc1cc(-c2ccc(OCC3CCOCC3)cc2F)n(S(=O)(=O)c2cccc(C#N)c2)c1` [Compound 28]: the Acid inhibition rate in data set [1] (2 mg/kg by gavage) is recorded as 71%. For the same compound, the IC50 in data set [2] is 30.8 nM.

`CNCc1cc(-c2ccc(OCc3ccc(OC)nc3)cc2F)n(S(=O)(=O)c2cccnc2)c1` [Compound A4] returned an Acid inhibition rate in data set [1] (2 mg/kg by gavage) of 60%. On to `CNCc1cc(-c2ccc(OCc3cccnc3F)cc2F)n(S(=O)(=O)c2cccnc2)c1` [Compound A1], for which the Acid inhibition rate in data set [1] (2 mg/kg by gavage) is on record as 68%. In data set [2], the IC50 amounted to 66.7 nM. Take `CNCc1cc(-c2ccc(OCc3cccnn3)cc2F)n(S(=O)(=O)c2cccnc2)c1` [Compound A7]: in data set [1] (2 mg/kg by gavage), the Acid inhibition rate is 53%. Regarding `CNCc1cc(-c2ccc(OCC3CCOCC3)cc2F)n(S(=O)(=O)c2cccnc2)c1` [Compound 6], in data set [1] (2 mg/kg by gavage), the Acid inhibition rate is given as 48%. For the same compound, the IC50 in data set [2] worked out at 149 nM. In the same order, the values of `CNCc1cc(-c2ccc(OC(C)C3CCOCC3)cc2F)n(S(=O)(=O)c2cccc(OCCCOC)c2)c1` (stereo not shown) [Compound 37] are 56% and 157 nM. Take `CNCc1cc(-c2ccc(OCC3CC3(F)F)cc2F)n(S(=O)(=O)c2cccnc2)c1` (stereo not shown) [Compound A10]: the Acid inhibition rate came out at 81% in data set [1] (2 mg/kg by gavage) and 87% in data set [1] (4 mg/kg by gavage). In addition, the IC50 in data set [2] is 27.7 nM. With `CNCc1cc(-c2ccc(OCC3COC3)cc2F)n(S(=O)(=O)c2cccnc2)c1` [Compound A12], the Acid inhibition rate in data set [1] (2 mg/kg by gavage) is 63%. The IC50 in data set [2] stood at 119 nM. Regarding `CNCc1cc(-c2ccc(OCC3CCCO3)cc2F)n(S(=O)(=O)c2cccnc2)c1` (stereo not shown) [Compound A14], the Acid inhibition rate in data set [1] (2 mg/kg by gavage) was determined as 63%. Compound `CNCc1cc(-c2ccc(OCC3CCOC3)cc2F)n(S(=O)(=O)c2cccnc2)c1` (stereo not shown) [Compound A13] showed an Acid inhibition rate in data set [1] (2 mg/kg by gavage) of 60%. For the same compound, the IC50 in data set [2] amounted to 128 nM. Consider `CNCc1cc(-c2ccc(OCc3ccn(C)n3)cc2F)n(S(=O)(=O)c2cccnc2)c1` [Compound A8], for which the Acid inhibition rate in data set [1] (2 mg/kg by gavage) was determined as 58%. The IC50 in data set [2] turned out to be 18.4 nM. In the same order, the values of `CNCc1cc(-c2ccc(OC(C)C3CCOCC3)cc2F)n(S(=O)(=O)c2cccnc2)c1` (stereo not shown) [Compound 8] are 71% and 72.1 nM. Take `CNCc1cc(-c2ccc(OCC3CO3)cc2F)n(S(=O)(=O)c2cccnc2)c1` (stereo not shown) [Compound A11]: the Acid inhibition rate in data set [1] (2 mg/kg by gavage) is on record as 81%. Besides, the IC50 in data set [2] is 14.1 nM. In turn, `CNCc1cc(-c2ccc(OCc3cnn(C)c3)cc2F)n(S(=O)(=O)c2cccnc2)c1` [Compound A3] returned an Acid inhibition rate in data set [1] (2 mg/kg by gavage) of 65%. Also, the IC50 in data set [2] came to 51.6 nM. As for `CNCc1cc(-c2ccc(OCC3CCOCC3)cc2F)n(S(=O)(=O)c2ccc(C)c(F)c2)c1` [Compound 26], the IC50 in data set [2] was 202 nM. Still for that read-out and setting: with `CNCc1cc(-c2ccc(OCC3CCOCC3)cc2F)n(S(=O)(=O)c2cc(F)cc(F)c2)c1` [Compound 27] the figure was 38.7 nM; with `CNCc1cc(-c2ccc(OCC3CCOCC3)cc2F)n(S(=O)(=O)c2cccc(OCC3CCCC3)c2)c1` [Compound 34], 285 nM.

`CNCc1cc(-c2ccc(OCc3cc(F)cc(F)c3)cc2F)n(S(=O)(=O)c2cccnc2)c1` [Compound 58]: the IC50 in data set [2] stood at 25.7 nM.

Regarding `CNCc1cc(-c2ccc(OCc3cccc4c3OCO4)cc2F)n(S(=O)(=O)c2cccc(C#N)c2)c1` [Compound 95], the IC50 in data set [2] was 9.5 nM. Take `CNCc1cc(-c2ccc(OC(C)c3cc(F)cc(F)c3)cc2F)n(S(=O)(=O)c2cccc(OCCCOC)c2)c1` (stereo not shown) [Compound 89]: in data set [2], the IC50 was determined as 1330 nM.

Regarding `CNCc1cc(-c2ccc(OC(C)C3CCOCC3)cc2F)n(S(=O)(=O)c2cccc(OCCCCOC)c2)c1` (stereo not shown) [Compound 38], the IC50 in data set [2] stood at 199 nM.

As for `CNCc1cc(-c2ccc(OCc3ccccc3OC(F)(F)F)cc2F)n(S(=O)(=O)c2cccnc2)c1` [Compound 60], the IC50 in data set [2] stood at 186 nM.

As to `CCNCc1cc(-c2ccc(OCC3CCOCC3)cc2F)n(S(=O)(=O)c2cccnc2)c1` [Compound 46], the IC50 in data set [2] turned out to be 639 nM. Still for that read-out and setting: with `CNCc1cn(S(=O)(=O)c2cccnc2)c(-c2ccc(OCC3CC3)cc2F)c1F` [Compound 51] the figure was 35.2 nM. For the compound `CNCc1cc(-c2ccc(OC[C@@H]3C[C@@H]3F)cc2F)n(S(=O)(=O)c2cccnc2)c1` [Compound 53], the IC50 in data set [2] was 56.1 nM. As to `CNCc1cc(-c2ccc(OCC3CCC(F)(F)CC3)cc2F)n(S(=O)(=O)c2cccnc2)c1` [Compound 5], in data set [2], the IC50 was 82.4 nM. The same measure, in the same setting: with `CNCc1cc(-c2ccc(OC(C)C3CCOCC3)cc2F)n(S(=O)(=O)c2cccc(OC)c2)c1` (stereo not shown) [Compound 15] the figure was 83.9 nM; with `CNCc1cc(-c2ccc(OC(C)c3c(F)cccc3F)cc2F)n(S(=O)(=O)c2cccc(C#N)c2)c1` (stereo not shown) [Compound 69], 114 nM. `CNCc1cc(-c2ccc(OCC3CCOCC3)cc2F)n(S(=O)(=O)c2cccc(F)c2)c1` [Compound 24]: in data set [2], the IC50 came out at 136 nM. Turning to `CNCc1cc(-c2ccc(OCc3cc(F)ccc3F)cc2F)n(S(=O)(=O)c2cccc(Cl)c2)c1` [Compound 78], in data set [2], the IC50 was 98.5 nM. Same read-out and setting: with `CNCc1cc(-c2ccc(OC)cc2F)n(S(=O)(=O)c2cccnc2)c1` [Compound 40] the figure was 123 nM; with `CNCc1cc(-c2ccc(OCC(C)(C)O)cc2F)n(S(=O)(=O)c2cccnc2)c1` [Compound 52], 372 nM.
